Experimental data from patent publication US5336485A, “Method for protecting animals against tacrine induced cytotoxic injury using sterol compounds” (priority 1993, dated 1994).
Structures can show the parent of a compound that is named as a salt. Where two headings read alike, the source gives them in different places.

What was measured:
rat hepatocytes [1] = test: EMS-induced cytotoxicity (LDH leakage/cell death) in rat hepatocyte suspensions; conditions: for inhibition at 25 µM: Rattus norvegicus, Hepatocyte; for inhibition at 25 µM / Percent Cytoprotection: 5 h; for Cell Death: 5 Hrs, alpha-TS 25, methyl ester 50, cholesteryl succinate 100, monomethyl/dimethyl succinate 250 μM
Procedure: To determine if alpha-TS is a cytoprotective agent under physiological conditions, liver cells were incubated with Waymouth's medium containing approximately 1 mM extracellular Ca^2+ in the presence and absence of alpha-TS.
(§1) At each time-point, rapid separation of viable from non-viable hepatocytes and medium was accomplished by the dibutyl phthalate centrifugation method. Cell viability was monitored hourly by measuring LDH leakage with a Cobas Analyzer and intracellular [K^+ ]with a flame photometer. LDH was routinely measured in the medium while intracellular K^+ was measured in the 10% perchloric acid lysate of viable cells. Lipid peroxidation was determined by measuring TBA reactants in the medium. […] The samples were diluted with 0.3 ml 1% ascorbate in 0.1 M SDS, 0.4 ml ethanol, sonicated and extracted once with 0.8 ml hexane. Next, the hexane extract was evaporated to dryness with N2, the residue dissolved in 2.5% ascorbate in methanol (1 ml) and analyzed (100 μl) by high-performance liquid chromatograph (HPLC). […] The mobile phase, 95% MeOH was run isocratically and the HPLC retention times for delta and alpha-tocopherol were approximately eleven and sixteen minutes, respectively. […] Following the addition of 0.2 ml 4 M HC1, the neutralized KOH-MeOH extracted with 0.8 ml hexane. […] A standard curve for each tocopherol congener was run with every assay. […] Only viable cells were monitored in the laboratory procedures.
To determine the relative cytoprotective potency of various tocopherol derivatives, the effect of varying doses of a tocopherol analog on the protection against EMS-induced toxicity was examined in vitro on rat hepatocyte suspensions. Specifically, the following ionizable tocopherol congeners were tested: alpha-TS, alpha tocopheryl glutarate (alpha-TG), and alpha tocopheryl phosphate (alpha-TP). […] 0.1 nmoles is the lower detection limit.
In vitro experiments were conducted with a variety of different tocopherol and succinate analogs to determine which were protective against EMS induced toxicity. After five hours of incubation with 50 mM EMS and 25μM of a tocopherol or succinate analog, cytoprotection was determined by comparing the percentage of LDH leakage from control hepatocytes (vehicle only, assumed 100% protection) with the EMS only treated cells (assumed 0% protection).
An in vitro experiment with rat hepatocyte suspensions was performed to determine the effect of esterase inhibitors on alpha-TS.
(§2) Rat hepatocyte suspensions were subjected to 50 mM EMS and the percentage of cell death, the percentage of intracellular K^+ (a metabolic parameter as discussed above), the depletion of ATP and the effect on lipid peroxidation were monitored.

male Sprague-Dawley rats = test: CCl4 induced lethality in rats; format: in vivo, rat; conditions: for Survival after CCl4 treatment: 100 mg/kg ip 24 h prior, […] CCl4 oral; for Days Survived after CCl4: 24 and 1 hour prior
Procedure: The in vivo effect of alpha-TS was tested by administering a lethal oral dose of carbon tetrachloride (CC14) to male Sprague-Dawley rats.
In the experiment described in Table 3, a single dose of alpha-TS dissolved in peanut oil:ethanol (3:2) was given to male Sprague-Dawley rats. The dose was given 24 hours prior to an orally administered CCl4 challenge dissolved in peanut oil. Two to nine animals were tested per treatment. The control group comprised rats pretreated with the vehicle only. Survival was monitored for at least 7 days after the toxic insult.
In vivo experiments were performed to determine if the time the ionizable tocopherol analog (alpha-TS) is administered affects the cytoprotective functions. Male Sprague-Dawley rats were given a 100 mg/kg intraperitoneal dose of a tocopherol or succinate analog and were given a lethal dose of CCl4 (2.9g/kg by oral gavage). Table 7 contrasts the times of administration of the tocopherol or succinate analog and the times of administration of the lethal dose of CCl4 with the survival of the rats in the study (3to 6 rats per protective treatment).
Several tocopherol and succinate analogs were tested for CCl4 induced lethality. A single dose of the tocopherol or succinate analog was administered twenty four hours prior to orally administering 2.9 g CCl4 /kg body weight. Three to six animals were analyzed per treatment. The rats were monitored for seven days. […]

liver = test: CCl4 induced hepatotoxicity in rats (serum AST/ALT); format: in vivo, rat
Procedure: In vivo experiments were performed to determine if alpha-TS administration protects the liver from chemical toxicity. The liver is the target organ for CCl4. CCl4 is a hepatotoxic agent that induces centrilobular liver necrosis through its metabolism to free radicals. Male Sprague-Dawley rats were given an intraperitoneal dose (100 mg/kg) of a tocopherol analog 24 hours prior to a CCl4 challenge (2.9g/kg given by oral garage). Forty eight hours after the challenge, the rats were sacrificed and the levels of aspartate aminotransferase (AST) and alanine aminotransferase (ALT) were measured.
As discussed above, SGOT levels provide a clinical assessment of hepatotoxicity (liver damage).
Succinate analogs were administered to male Sprague-Dawley rats 20 hours prior to a 1 g CCl4 /kg body weight oral challenge and the AST and ALT serum enzyme levels were measured 48 hours after the challenge.
Similar to the experiments were described above, the ionizable congeners were administered to Sprague-Dawley rats by i.p. injection of a 100 mg ionizable congener/kg body weight dose 20 hours prior to oral administration of a 1 g/kg dose of CCl4, and the AST and ALT levels were measured 48 hours after the CCl4 challenge.

rat hepatocytes [2] = test: EMS-induced lipid peroxidation in rat hepatocyte suspensions; format: cell-based; conditions: 50 mM EMS, 5 Hrs; concentrations as cell death (Table 15)
Procedure: as §1, §2

[3] = Tissue distribution of alpha-tocopherol and alpha-tocopherol ester in rats; format: in vivo, rat; conditions: K+ salt in saline, 1 dose 100 mg/kg, 24 h
Procedure: 100 mg/kg body weight of a tocopherol analog was administered to Sprague-Dawley rats using a peanut oil:ethanol vehicle (3:2). Twenty four hours later the rats were sacrificed and the accumulation of the tocopherol analog in the liver was determined.
A similar in vivo experiment to that discussed in conjunction with Table 5 was performed to determine if other tissues accumulate alpha-TS. Male Sprague-Dawley rats were given a 100 mg/kg dose of alpha-TS using a variety of chemical forms and vehicles. A variety of techniques were used to administer the alpha-TS. Twenty four hours later the rats were sacrificed and the tissues were tested for alpha-TS accumulation.

[4] = read-out: Percent Cytoprotection, 25 μM, 50 mM EMS, 5 h
[5] = 100 mg/kg, single dose 24 h prior, CCl4 […]
[6] = 100 mg/kg ip, 48 h after 1 g/kg CCl4 (Table 31)
[7] = 1 g/kg, single dose 24 h prior, CCl4 […]

## Cc1c(C)c2c(c(C)c1OC(=O)CC(C)C(=O)O)CC[C@@](C)(CCC[C@H](C)CCC[C@H](C)CCCC(C)C)O2 (stereo partly drawn) [Alpha-Tocopherol 3-Methyl Succinate, alpha-tocopheryl 3-methyl succinate]
Rat hepatocytes [1]; [4]
  inhibition at 25 µM: 70 ± 9%
Male Sprague-Dawley rats
  Survival after CCl4 treatment: No
Male Sprague-Dawley rats; [5]
  Days Survived After CCl4 Treatment: 2 days

## Cc1c(C)c2c(c(C)c1OC(=O)CCCC(=O)O)CCC(C)(CCCC(C)CCCC(C)CCCC(C)C)O2 (stereo not drawn) [Alpha-Tocopherol Glutarate, alpha-tocopherol monoglutarate]
Rat hepatocytes [1]; [4]
  inhibition at 25 µM: 55 ± 15%
Male Sprague-Dawley rats
  Survival after CCl4 treatment: No
Male Sprague-Dawley rats; [5]
  Days Survived After CCl4 Treatment: 2 days

## Cc1c(C)c2c(c(C)c1OC(=O)CCC(N)=O)CC[C@@](C)(CCC[C@H](C)CCC[C@H](C)CCCC(C)C)O2 [Alpha-Tocopherol Succinamide]
Rat hepatocytes [1]; [4]
  inhibition at 25 µM: 0%

## CC(C)CCC[C@@H](C)[C@H]1CC[C@H]2[C@@H]3CC=C4C[C@@H](O)CC[C@]4(C)[C@H]3CC[C@]12C [Cholesterol, reference compound]
liver; [6]
  ALT: 1.16 ± 0.41 10^3 units/L
  AST: 3.03 ± 0.84 10^3 units/L
liver; 100 mg/kg ip, 48 h after 1.0 g/kg CCl4
  SGOT Levels: 4.08 ± 2.45 10^3 units/L
liver; rats, serum enzyme levels
  protection against CCl4 hepatotoxicity (in words): provided no protection
Rat hepatocytes [1]; [4]
  inhibition at 25 µM: 30 ± 16%
Male Sprague-Dawley rats
  Survival after CCl4 treatment: No
Male Sprague-Dawley rats; [5]
  Days Survived After CCl4 Treatment: 2 days

## Cc1cc(OC(=O)CCC(=O)O)cc2c1OC(C)(CCCC(C)CCCC(C)CCCC(C)C)CC2 (centres unmarked) [Delta-Tocopherol Succinate, Delta-tocopherol mono succinate]
Rat hepatocytes [1]; [4]
  inhibition at 25 µM: 70 ± 24%

## Cc1cc(O)cc2c1OC(C)(CCCC(C)CCCC(C)CCCC(C)C)CC2 (centres unmarked) [Delta-Tocopherol, reference compound]
Rat hepatocytes [1]; read-out: Percent Cytoprotection
  inhibition at 25 µM: 0%

## COC(=O)CCC(=O)OC [Dimethyl Succinate, reference compound]
Rat hepatocytes [1]; 50 mM EMS
  Cell Death: 60 ± 1%
Male Sprague-Dawley rats; 1 g/kg
  Days Survived after CCl4: 2 days
Male Sprague-Dawley rats; [7]
  Days Survived After CCl4 Treatment: 2 days
Male Sprague-Dawley rats; rat, in vivo
  cytoprotection (Table 7, in words): not cytoprotective
Rat hepatocytes [2]
  Lipid Peroxidation: 12.6 ± 0.2 nmolMDA/10^6 cells

## Cc1c(C)c2c(c(C)c1OC(=O)CCC(=O)O)CC[C@@](C)(CCC[C@H](C)CCC[C@H](C)CCCC(C)C)O2 [K + salt of Alpha-TS, Alpha-Tocopherol Succinate, K^+ Salt]
[3]; (c) ip
  alpha-TS, Blood: 19 nmoles/gm of Tissue
  alpha-TS, Heart: 18 nmoles/gm of Tissue
  alpha-TS, Kidney: 15 nmoles/gm of Tissue
  alpha-TS, Liver: 518 nmoles/gm of Tissue
  alpha-TS, Lung: 60 nmoles/gm of Tissue
  alpha-TS, Plasma: 24 nmoles/gm of Tissue
[3]; (d) iv
  alpha-TS, Blood: 18 nmoles/gm of Tissue
  alpha-TS, Heart: 24 nmoles/gm of Tissue
  alpha-TS, Kidney: 27 nmoles/gm of Tissue
  alpha-TS, Liver: 445 nmoles/gm of Tissue
  alpha-TS, Lung: 385 nmoles/gm of Tissue
  alpha-TS, Plasma: 30 nmoles/gm of Tissue
Rat hepatocytes [1]; 25 μM, 50 mM EMS, K^+ Salt, 300 min, 25 µM
  Percent Cytoprotection: 97 ± 3%
Male Sprague-Dawley rats; [5]
  Days Survived After CCl4 Treatment: > 7 days

## COC(=O)CCC(=O)O [Monomethyl Succinate, reference compound]
Rat hepatocytes [1]; 50 mM EMS
  Cell Death: 61 ± 5%
Male Sprague-Dawley rats; 1 g/kg
  Days Survived after CCl4: 2 days
Male Sprague-Dawley rats; [7]
  Days Survived After CCl4 Treatment: 2 days
Rat hepatocytes [2]
  Lipid Peroxidation: 12.8 ± 1.0 nmolMDA/10^6 cells

## d-alpha-tocopheryl polyethylene glycol 1,000 succinate
Rat hepatocytes [1]; 25 μM, 50 mM EMS
  Percent Cytoprotection: 80 ± 15%
Rat hepatocytes [1]; rat hepatocytes, 25 μM, 50 mM EMS
  protection from lethal effects of EMS: protection was observed against EMS-induced toxicity
Male Sprague-Dawley rats; 200 mg/Kg, iv, 24 h prior
  Days Survived After CCl4 Treatment: > 7 days
Male Sprague-Dawley rats; 200 mg/kg, oral, 24 h prior
  Days Survived After CCl4 Treatment: 2 days
Male Sprague-Dawley rats; 100 or 200 mg/Kg, single dose 24 h prior
  Days Survived After CCl4 Treatment: > 7 days
